Experimental data reported in patent publication US20210137118A1, “NEW USES OF 9-(3-DEOXY-BETA-D-RIBOFURANOSYL)ADENINE” (Agroquimicos De Levante, S.A., priority 2018, published 2021).

Legend:
Anacridium aegyptium = assay: Laboratory tests on orthoptera; assay type: in vivo
Meloidogyne incognita = assay: In vitro test on M. incognita eggs (egg hatching, petri dishes); conditions: tested concentration 5%
Halyomorpha halys = assay: Laboratory tests on heteroptera; assay type: in vivo

Nc1ncnc2c1ncn2[C@@H]1O[C@H](CO)C[C@H]1O [9-(3-Deoxy-β-D-ribofuranosyl)adenine]
effect on adult forms of orthoptera (Anacridium aegyptium) (Anacridium aegyptium): no significant effect
action on free larvae included in the ovisacs (Meloidogyne incognita): good action
effect on egg embryogenesis (Meloidogyne incognita): inhibition of egg embryogenesis
effect on adult forms of heteroptera (Halyomorpha halys) (Halyomorpha halys): no significant effect
